The values that follow come from patent EP2027772A1, “Skin-friendly insect repellent” (Beiersdorf AG, priority 2007, dated 2009).

The nature of one data set: Octanol/water partition coefficient (log P), shake-flask with UV spectroscopy; alternatively calculated by Hansch and Leo.
Conditions: not given
`CC(C)(CO)CO` [Neopentanediol, Neopentyleme Glyol]: the “Log P-Wert” value is -0,3.

Staying with this data set, now noted: n-Octanol/Wasser.
In the case of `OCCCCO` [Butane-1,4diol, Tetramethylene Glucol], the “Log P-Wert” value is listed as -1.

In the case of `CC(O)CO` (stereo not drawn) [1,2 Propandiol], the “Log P-Wert” value is reported as -1,3.

The next data set is described as follows: physchem.
Conditions: not given
For `CC(O)CCO` (stereo not drawn) [1,3 Butandiol], the logP (as a rule, the decadic logarithm of the partition coefficient of the neutral form, usually between octanol and water) is -0.7.

The molecule `OCCCCCCO` [1,6 Hexandiol] had a lipophilicity (logP) of -0.1.

As for `CCCCC(CC)COCC(O)CO` (stereo not drawn) [3-[(2-Ethylhexyl)oxy]-1,2 propandiol], the logP is 2.1.

In turn, `OCCCCCO` [1,5 Pentandiol] came in with a logP of -0.6.

In the case of `CCC(CO)(CO)CO` [2-Ethyl-2-Hydroxymethyl 1,3 Propandiol], the logP was -0.8.

`OCC(CO)(CO)CO` [2,2 Bishydroxymethyl 1,3 Propanediol] registered a logP of -2.4.

The same data set, now with this note: n-octanol/water.
Molecule `CCCCC(O)CO` (stereo not drawn) [1,2 Hexandiol] returned a logP of 1.

`CC(CO)CO` [2-Methyl-1,3-Propanediol] registered a logP of -0.7.

The molecule `CCCCCCCC(O)CO` (stereo not drawn) [1,2 Nonanediol] showed a logP of 2.5.

With `COCC(O)COC` [1,3-Dimethoxy-2-propanol], the logP was -0.5.

In turn, `CCC(CO)(CO)COCC(CC)(CO)CO` [3,3,7,7 Tetrahydroxymethyl 5 oxanonan] gave a logP of -0.3.

For `CCCCCC(O)CO` (stereo not drawn) [1,2 Heptanediol], the logP is 1.5.

On to `CC(C)(O)CCO` [3-Methyl 1,3 Butanediol], for which the logP is -0.3.

The molecule `CCCCCCC(O)CO` (stereo not drawn) [1,2 Octandiol] had a logP of 1.3.

Consider `CCCCCC(O)C(O)CO` (stereo not drawn) [1,2,3 Octanetriol], for which the logP was found to be 0.15.

Molecule `CC(O)CC(C)(C)O` (stereo not drawn) [2-Methyl-2,4 Pentandiol] came in with a logP of 0.

In turn, `CCCCCCCCC(O)CO` (stereo not drawn) [1,2-Decandiol] had a logP of 2.4.

For `CCCC(O)CO` (stereo not drawn) [1,2 Pentandiol], the log partition coefficient (logP) was -0.3.
